Read-outs that look alike come from different tables or passages of the source.

One series deals with hippocampus neurons. The experiment in a line: Inhibition of reduction in survival rate of rat embryonic hippocampus neurons in serum-free culture. The class given is cell-based. As to conditions: for inhibitory effect against reduction in survival rate of hippocampus neurons (in words): within the range of 1-1,000 ng/ml; for viability at 1 µg/mL / viability at 0.1 µg/mL / viability at 0.01 µg/mL / viability at 0.001 µg/mL / viability at 0.0001 µg/mL: Rattus norvegicus, Neuron, 72 h, read-out: survival rate of neurons (control group taken as 100%); for viability at 1 µg/mL: 10^-6 g/ml. The source says:
From a rat at the 18th day of pregnancy (having an 18-day old embryo) the uterus was aseptically removed under etherification, and the fetus was obtained. The whole brain was collected from the fetus. From the brain placed in an L-15 medium, the hippocampus was separated under a microscope and minced with a knife. […] The thus-isolated cells were suspended in Eagle's MEM medium supplemented with 10% fetal calf serum, and inoculated at a concentration of 4×10^4 cells/cm^2 into wells of a 48-well plate which had been coated with poly-L-lysin in advance. […] After three-days' additional incubation, the cells were fixed, stained, and the number of surviving cells in each well was counted.
When the survival rate of the neurons in the control group was taken as 100%: […]

Series [1] can be described thus: Oral acute toxicity (LD50) in mice. As to conditions: mouse, in vivo, oral administration.
Series [2] relates to neurites of hippocampus cells. The experiment in a line: Branching promotion effect on neurites of hippocampus cells. It is filed as cell-based, rat. The note with it: number of branches from the longest neurite, one and two days after addition, FIG. 1. How it is done: The hippocampus cells obtained in a manner similar to that in Example 1 were incubated for 24 hours in a medium containing fetal calf serum, then for further 24 hours in a serum-free medium. Subsequently, compound (1-1) was added. When compound (1-1) was added, and at the times of one and two days after addition, photographs were taken of the same cells. The number of branches from the longest neurite was counted.

Series [3] can be described thus: Oral acute toxicity (LD50) in rats. The note with it: rat, in vivo, oral administration.
Where [4] appears, read: three days' incubation, serum-free medium.
Setting [5] is: 10^-7 g/ml, three days' incubation, serum-free medium.
The mark [6] stands for this setting: 10^-8 g/ml, three days' incubation, serum-free medium.
[7] abbreviates: 10^-9 g/ml, three days' incubation, serum-free medium.
The mark [8] stands for this setting: 10^-10 g/ml, three days' incubation, serum-free medium.

In the case of `C=CCOCC=C` [diallyl ether, reference compound], the “inhibitory effect against reduction in survival rate of hippocampus neurons (in words)” value (shortened to “inhibitory effect against reduction”) in the series on hippocampus neurons is given as “No inhibitory effect”.
On the same count and under the same terms, for `C=CCCSC[C@H](N)C(=O)O` [S-(3-butenyl)-L-cysteine, reference compound] the value was “No inhibitory effect”; for `C=CCOC(=O)[C@@H](N)CS` [O-allyl-L-cysteine, reference compound], “No inhibitory effect”.
With `CCCSSCCC` [dipropyldisulfide, reference compound], the “inhibitory effect against reduction” value in the series with hippocampus neurons is recorded as “No inhibitory effect”.
Take `C=CCSC[C@H](NC(C)=O)C(=O)O` [(1-5)]: the viability at 1 µg/mL in the series on hippocampus neurons (setting [4]) lay within 110 to 130%. Further, in the series on hippocampus neurons (setting [5]), the viability at 0.1 µg/mL fell in the range of 110 to 130%. Further, the viability at 0.01 µg/mL in the series on hippocampus neurons (setting [6]) fell in the range of 110 to 130%. Further, the viability at 0.001 µg/mL in the series with hippocampus neurons (setting [7]) fell in the range of 90 to 110%.
As for `C=CCSCC=C` [(1-11)], the viability at 1 µg/mL in the series with hippocampus neurons (setting [4]) lay within 110 to 130%. Moreover, in the series on hippocampus neurons (setting [5]), the viability at 0.1 µg/mL fell in the range of 110 to 130%. Also, the viability at 0.01 µg/mL with hippocampus neurons (setting [6]) is 110 to 130%. Moreover, in the series on hippocampus neurons (setting [7]), the viability at 0.001 µg/mL lay within 90 to 110%. Besides, the viability at 0.0001 µg/mL in the series on hippocampus neurons (setting [8]) lay in the range of 90 to 110%.
For `C=CCSC[C@H](NC(=O)CC[C@H](N)C(=O)O)C(=O)NCC(=O)O` [(1-7)], the viability at 1 µg/mL with hippocampus neurons (setting [4]) fell in the range of 130 to 150%. In addition, the viability at 0.1 µg/mL with hippocampus neurons (setting [5]) was in the range of 130 to 150%. For the same molecule, in the series on hippocampus neurons (setting [6]), the viability at 0.01 µg/mL fell in the range of 90 to 110%. For the same molecule, the viability at 0.001 µg/mL in the series on hippocampus neurons (setting [7]) fell in the range of 90 to 110%. In addition, the viability at 0.0001 µg/mL in the series with hippocampus neurons (setting [8]) lay in the range of 90 to 110%.
On to `C[S+]([O-])C[C@H](N)C(=O)O` (stereo partly drawn) [S-methyl-L-cysteinesulfoxide, reference compound], for which the “inhibitory effect against reduction” value in the series with hippocampus neurons is recorded as “No inhibitory effect”.
Take `C=CCSCC[C@H](N)C(=O)O` [(1-9)]: the viability at 1 µg/mL in the series with hippocampus neurons (setting [4]) lay within 90 to 110%. Also, the viability at 0.1 µg/mL in the series on hippocampus neurons (setting [5]) is 110 to 130%. Besides, the viability at 0.01 µg/mL in the series with hippocampus neurons (setting [6]) lay in the range of 90 to 110%.
Regarding `C=CCSC(CC(=O)O)C(=O)O` (stereo not drawn) [(1-13)], in the series with hippocampus neurons (setting [4]), the viability at 1 µg/mL fell in the range of 110 to 130%. Besides, the viability at 0.1 µg/mL in the series with hippocampus neurons (setting [5]) is 110 to 130%. Also, the viability at 0.01 µg/mL in the series on hippocampus neurons (setting [6]) lay within 90 to 110%.
With `C=CCS` [(1-10)], the viability at 1 µg/mL in the series on hippocampus neurons (setting [4]) was in the range of 110 to 130%. In the series on hippocampus neurons (setting [5]), the viability at 0.1 µg/mL was 110 to 130%. Further, in the series with hippocampus neurons (setting [6]), the viability at 0.01 µg/mL lay in the range of 110 to 130%. In addition, the viability at 0.001 µg/mL in the series with hippocampus neurons (setting [7]) is 90 to 110%. The viability at 0.0001 µg/mL in the series on hippocampus neurons (setting [8]) was in the range of 90 to 110%.
As for `CCCSCCC` [dipropylsulfide, reference compound], the “inhibitory effect against reduction” value in the series on hippocampus neurons was “No inhibitory effect”.
On the same count and under the same terms, in the case of `CCCSC[C@H](N)C(=O)O` [S-propyl-L-cysteine, reference compound] it was “No inhibitory effect”.
Still for that read-out and setting: in the case of `C=CCNCC(=O)O` [allyl glycine, reference compound] it was “No inhibitory effect”; in that of `N[C@@H](CS)C(=O)O` [L-cysteine, reference compound], “No inhibitory effect”.
For `C=CCSc1nc2ccccc2o1` [(1-15)], the viability at 1 µg/mL with hippocampus neurons (setting [4]) lay in the range of 110 to 130%. Further, the viability at 0.1 µg/mL with hippocampus neurons (setting [5]) lay within 110 to 130%. In the series with hippocampus neurons (setting [6]), the viability at 0.01 µg/mL is 90 to 110%.
For the molecule `CC=CSC[C@H](N)C(=O)O` [S-(1-propenyl)-L-cysteine, reference compound], in the series with hippocampus neurons, the “inhibitory effect against reduction” value is reported as “No inhibitory effect”.
On to `C=CCSSCC=C` [(1-12)], for which, in the series with hippocampus neurons, the viability at 0.0001 µg/mL was in the range of 90 to 110%, the viability at 0.001 µg/mL fell in the range of 90 to 110%, the viability at 0.01 µg/mL was in the range of 110 to 130% and the viability at 0.1 µg/mL lay within 110 to 130%.
Turning to `C=CCNC(N)=O` [N-allyl urea, reference compound], the “inhibitory effect against reduction” value in the series on hippocampus neurons is listed as “No inhibitory effect”.
Still for that read-out and setting: in the case of `C=CCc1ccc(O)c(OC)c1` [eugenol, reference compound] it was “No inhibitory effect”; in that of `C=CCO` [allyl alcohol, reference compound], “No inhibitory effect”.
Consider `C=CCSC[C@H](N)C(=O)O` [Compound (1-1)], for which the LD50 in series [1] and in series [3] was at least 1000 mg/kg each time. The viability at 1 µg/mL in the series with hippocampus neurons (setting [4]) lay within 130 to 150%. Besides, in the series with hippocampus neurons (setting [5]), the viability at 0.1 µg/mL was 130 to 150%. The viability at 0.01 µg/mL in the series with hippocampus neurons (setting [6]) is 110 to 130%. The viability at 0.001 µg/mL with hippocampus neurons (setting [7]) fell in the range of 110 to 130%. In the series on hippocampus neurons (setting [8]), the viability at 0.0001 µg/mL fell in the range of 90 to 110%. Also, the “branching promotion effect on neurites” value in series [2] is reported as “confirmed to have branching promotion effect on neurites”.
For the molecule `CCCSC[C@H](NC(=O)CC[C@H](N)C(=O)O)C(=O)O` [gamma-glutamyl-S-propyl-L-cysteine, reference compound], the “inhibitory effect against reduction” value in the series with hippocampus neurons is listed as “No inhibitory effect”.
As for `C=CCSc1ccccc1C(=O)O` [(1-14)], the viability at 1 µg/mL in the series on hippocampus neurons (setting [4]) fell in the range of 110 to 130%. Besides, the viability at 0.1 µg/mL with hippocampus neurons (setting [5]) is 110 to 130%. In the series on hippocampus neurons (setting [6]), the viability at 0.01 µg/mL is 90 to 110%.
As to `C=CCSC[C@H](NC(=O)CC[C@H](N)C(=O)O)C(=O)O` [(1-6)], the viability at 1 µg/mL in the series on hippocampus neurons (setting [4]) was in the range of 130 to 150%. In addition, the viability at 0.1 µg/mL with hippocampus neurons (setting [5]) lay in the range of 130 to 150%. Further, in the series on hippocampus neurons (setting [6]), the viability at 0.01 µg/mL lay in the range of 130 to 150%. For the same molecule, the viability at 0.001 µg/mL in the series with hippocampus neurons (setting [7]) lay within 90 to 110%. Also, in the series with hippocampus neurons (setting [8]), the viability at 0.0001 µg/mL is 90 to 110%.
In the case of `C=CCSSC[C@H](N)C(=O)O` [(1-4)], in the series with hippocampus neurons (setting [4]), the viability at 1 µg/mL lay in the range of 90 to 110%. For the same molecule, the viability at 0.1 µg/mL with hippocampus neurons (setting [5]) fell in the range of 130 to 150%. Moreover, the viability at 0.01 µg/mL in the series on hippocampus neurons (setting [6]) lay within 110 to 130%. In addition, the viability at 0.001 µg/mL in the series with hippocampus neurons (setting [7]) was 90 to 110%. Also, the viability at 0.0001 µg/mL with hippocampus neurons (setting [8]) fell in the range of 90 to 110%.
As for `CSC[C@H](N)C(=O)O` [S-methyl-L-cysteine, reference compound], the “inhibitory effect against reduction” value in the series with hippocampus neurons is “No inhibitory effect”.
Turning to `C=CCS(=O)(=O)C[C@H](N)C(=O)O` [(1-3)], the viability at 1 µg/mL in the series on hippocampus neurons (setting [4]) was in the range of 130 to 150%. Moreover, the viability at 0.1 µg/mL in the series with hippocampus neurons (setting [5]) was 110 to 130%. Further, the viability at 0.01 µg/mL in the series with hippocampus neurons (setting [6]) was 110 to 130%. In addition, the viability at 0.001 µg/mL with hippocampus neurons (setting [7]) lay in the range of 110 to 130%.
As to `C=CC[S+]([O-])C[C@H](N)C(=O)O` (stereo partly drawn) [(1-2)], the viability at 1 µg/mL in the series on hippocampus neurons (setting [4]) lay in the range of 130 to 150%. In addition, in the series on hippocampus neurons (setting [5]), the viability at 0.1 µg/mL fell in the range of 130 to 150%. In the series with hippocampus neurons (setting [6]), the viability at 0.01 µg/mL lay in the range of 110 to 130%. Moreover, in the series on hippocampus neurons (setting [7]), the viability at 0.001 µg/mL was 110 to 130%. Also, the viability at 0.0001 µg/mL in the series on hippocampus neurons (setting [8]) lay in the range of 90 to 110%.
For the molecule `C#CCSC[C@H](N)C(=O)O` [S-propargyl-L-cysteine, reference compound], in the series with hippocampus neurons, the “inhibitory effect against reduction” value is given as “No inhibitory effect”.

The values above are taken from patent publication US6239111A, “In vivo method of improving survival rate of brain neurons” (Wakunaga Pharmaceutical Co., Ltd., priority 1996, dated 2001).
